According to patent US4482551A, “Cephalosporin derivatives” (Hoffmann-La Roche Inc., priority 1982, dated 1984):
Counter-ions that a name gives are not always drawn. Like-named read-outs stand apart in the source and are kept apart here.

Tests used:
Enterobacter cloacae = assay: Activity in vitro: Minimum inhibitory concentration; format: cell-based; conditions: read-out: Minimum inhibitory concentration
Text: (§1) Activity in vitro: Minimum inhibitory concentration

Haemophilus influenzae = assay: as above; format: cell-based; conditions: read-out: Minimum inhibitory concentration
Text: as §1

Neisseria gonorrhoeae = assay: as above; format: cell-based; conditions: read-out: Minimum inhibitory concentration
Text: as §1

Serratia marcescens = assay: as above; format: cell-based; conditions: read-out: Minimum inhibitory concentration
Text: as §1

[1] = test system: Pseudomonas aeruginosa strain 2; assay: as above; format: cell-based
Text: as §1

[2] = test system: Pseudomonas aeruginosa strain 1; assay: as above; format: cell-based
Text: as §1

Proteus vulgaris = assay: as above; format: cell-based; conditions: read-out: Minimum inhibitory concentration
Text: as §1

Escherichia coli = assay: as above; format: cell-based; conditions: read-out: Minimum inhibitory concentration
Text: as §1

Staphylococcus aureus = assay: as above; format: cell-based; conditions: read-out: Minimum inhibitory concentration
Text: as §1

Proteus mirabilis = assay: as above; format: cell-based; conditions: read-out: Minimum inhibitory concentration
Text: as §1

Toxicity (LD100) = format: in vivo
[3] = in vitro, lactamase forming strain

Work on `CO/N=C(\C(=O)N[C@@H]1C(=O)N2C(C(=O)[O-])=C(CSc3nc(=O)cnn3C)CS[C@H]12)c1csc(N)n1.[Na+]` yielded an MIC (Enterobacter cloacae) of 2.5 µg/mL, an MIC (Haemophilus influenzae) of 0.02 µg/mL and an MIC (Neisseria gonorrhoeae) of 0.02 µg/mL. The MIC (Serratia marcescens) was 0.16 µg/mL, the MIC ([1]; Pseudomonas aeruginosa, 2, read-out: Minimum inhibitory concentration) was 40 µg/mL and the MIC ([2]; Pseudomonas aeruginosa, 1, read-out: Minimum inhibitory concentration) was 40 µg/mL. It also gave an MIC (Proteus vulgaris) of 0.02 µg/mL, an MIC (Escherichia coli) of 0.04 µg/mL and an MIC (Staphylococcus aureus) of 2.5 µg/mL. For the same compound, the MIC (Proteus mirabilis) was 0.04 µg/mL, the LD100 (Toxicity (LD100); i.v.) was 1000 mg/kg and the LD100 (Toxicity (LD100); p.o.) was > 5000 mg/kg. The LD100 (Toxicity (LD100); s.c.) was > 5000 mg/kg.
`CO/N=C(\C(=O)N[C@@H]1C(=O)N2C(C(=O)O)=C(CSc3nc(=O)c(C)nn3C)CS[C@H]12)c1csc(N)n1` [Product B, (6R,7R)-7-[2-(2-amino-4-thiazolyl-2-[(Z)-methoxyimino]acetamido]-3-[[(2,5-dihydro-2,6-dimethyl-5-oxo-as-triazin-3-yl)thio]methyl]-8-oxo-5-thia-1-azabicyclo[4.2.0]oct-2-ene-2-carboxylic acid sodium salt] gave an MIC (Enterobacter cloacae; [3]) of 2.5 µg/mL, an MIC (Haemophilus influenzae; in vitro) of 0.02 µg/mL and an MIC (Neisseria gonorrhoeae; in vitro) of 0.02 µg/mL. It also gave an MIC (Serratia marcescens; [3]) of 0.32 µg/mL, an MIC ([1]; in vitro, Pseudomonas aeruginosa strain 2, lactamase forming strain, read-out: Minimum inhibitory concentration) of 80 µg/mL and an MIC ([2]; in vitro, Pseudomonas aeruginosa strain 1, lactamase forming strain, read-out: Minimum inhibitory concentration) of 80 µg/mL. For the same compound, the MIC (Proteus vulgaris; [3]) was 0.02 µg/mL, the MIC (Escherichia coli; [3]) was 0.08 µg/mL and the MIC (Staphylococcus aureus; in vitro) was 2.5 µg/mL. For the same compound, the MIC (Proteus mirabilis; [3]) was 0.08 µg/mL, the LD100 (Toxicity (LD100); i.v.) was 500 mg/kg and the LD100 (Toxicity (LD100); p.o.) was > 5000 mg/kg. For the same compound, the LD100 (Toxicity (LD100); s.c.) was > 4000 mg/kg.
